# Data published in ChEMBL document CHEMBL4049449, “Discovery of a Novel Class of Survival Motor Neuron 2 Splicing Modifiers for the Treatment of Spinal Muscular Atrophy” (J Med Chem, 2017).
# Calls of active or inactive are those of the source. No cut-off for these calls is given here.
# Experiments:
# Homo sapiens [1] = species on record: Homo sapiens; assay: Modulation of patient derived full length SMN2 pre mRNA splicing assessed as inclusion of exon 7
# Homo sapiens [2] = species on record: Homo sapiens; assay: Modulation of patient derived full length SMN2 pre mRNA splicing assessed as restoration of functional SMN2 to protein level
SMILES,EC1.5 (Homo sapiens [1]),EC1.5 (Homo sapiens [2])
Cc1cn2cc(COc3ccc(N4CCNCC4)cc3)nc2c(C)n1,inactive,inactive
Cc1cn2cc(/C=C/c3ccc(N4CCNCC4)cc3)nc2c(C)n1,4410 nM,8420 nM
Cc1cn2cc(C(=O)Nc3ccc(N4CCN(C)CC4)cc3)nc2c(C)n1,inactive,inactive
Cc1cn2cc(NC(=O)c3ccc(N4CCN[C@H](C)C4)cc3F)ncc2n1,15 nM,122 nM
Cc1cn2cc(NC(=O)c3ccc(N4CCNCC4)cc3)nc2c(C)n1,–,775 nM
Cc1cn2cc(-c3ccc(NC(=O)C4CCN(C)CC4)cc3)nc2c(C)n1,inactive,inactive
Cc1cn2cc(NC(=O)c3ccc(N4CCNC(C)(C)C4)cc3F)ncc2n1,31 nM,504 nM
Cc1cn2cc(NC(=O)c3ccc(C4CCN(C)C4)cc3F)nc2c(C)n1 (centres undefined),91 nM,176 nM
Cc1cn2cc(C(=O)Nc3ccc(C4CCN(C)CC4)cc3)nc2c(C)n1,inactive,inactive
Cc1cn2cc(C#Cc3ccc(N4CCN(C)CC4)cc3)nc2c(C)n1,inactive,inactive
Cc1cn2cc(NC(=O)c3ccc(N4CCC(N5CCCC5)C4)cc3F)nc2c(C)n1 (centres undefined),29 nM,86 nM
Cc1cn2cc(-c3ccc4c(c3)OC(=O)N(C3CCNCC3)C4)nc2c(C)n1,4700 nM,inactive
COc1cc(N2CCNC(C)C2)ccc1C(=O)Nc1cn2cc(C)nc2cn1 (centres undefined),58 nM,206 nM
Cc1cn2cc(NC(=O)c3ccc(N4CCN(N5CCCC5)CC4)cc3F)nc2c(C)n1,100 nM,200 nM
Cc1cn2cc(-c3ccc(NC(=O)N4CCN(C)CC4)cc3)nc2c(C)n1,inactive,inactive
Cc1cn2cc(NC(=O)c3c(F)cc(N4CCNCC4)cc3Cl)ncc2n1,2030 nM,8760 nM
Cc1cn2cc(-c3ccc(C(=O)NC4CCN(C)CC4)cc3)nc2c(C)n1,inactive,inactive
Cc1cn2cc(NC(=O)c3ccc(N4CCNCC4)cc3)ncc2n1,1040 nM,2250 nM
Cc1cn2cc(NC(=O)c3ccc(N4CCN(C)CC4)cn3)nc2c(C)n1,–,1520 nM
Cc1cn2cc(NC(=O)c3ccc(C4CCNCC4)cc3)nc2c(C)n1,820 nM,3800 nM
Cc1cn2cc(NC(=O)c3ccc(N4CCN(C)CC4)cc3F)nc2c(C)n1,232 nM,560 nM
Cc1cn2cc(NC(=O)c3cc(F)c(N4CCNC(C)C4)cc3F)ncc2n1 (centres undefined),85 nM,495 nM
Cc1cn2cc(N(C)C(=O)c3ccc(N4CCN(C)CC4)cc3)nc2c(C)n1,inactive,inactive
COc1nc(N2CCNCC2)ccc1C(=O)Nc1cn2cc(C)nc2cn1,129 nM,555 nM
Cc1cn2cc(CCc3ccc(N4CCNCC4)cc3)nc2c(C)n1,inactive,inactive
Cc1cn2cc(NC(=O)c3ccc(N4CCNC(C)C4)c(F)c3F)ncc2n1 (centres undefined),165 nM,603 nM
Cc1cn2cc(-c3ccc4c(c3)CCN(C3CCNCC3)C4=O)nc2c(C)n1,530 nM,inactive
Cc1cn2cc(NC(=O)c3ccc(N4CCNC(C(C)C)C4)cc3F)ncc2n1 (centres undefined),106 nM,265 nM
